Molecular target: T1, human PAH with the R408W mutation (Homo sapiens, UniProt P00439, R408W)
T1 construct: expressed in transfected cells
T1 sequence (P00439 1-452 R408W): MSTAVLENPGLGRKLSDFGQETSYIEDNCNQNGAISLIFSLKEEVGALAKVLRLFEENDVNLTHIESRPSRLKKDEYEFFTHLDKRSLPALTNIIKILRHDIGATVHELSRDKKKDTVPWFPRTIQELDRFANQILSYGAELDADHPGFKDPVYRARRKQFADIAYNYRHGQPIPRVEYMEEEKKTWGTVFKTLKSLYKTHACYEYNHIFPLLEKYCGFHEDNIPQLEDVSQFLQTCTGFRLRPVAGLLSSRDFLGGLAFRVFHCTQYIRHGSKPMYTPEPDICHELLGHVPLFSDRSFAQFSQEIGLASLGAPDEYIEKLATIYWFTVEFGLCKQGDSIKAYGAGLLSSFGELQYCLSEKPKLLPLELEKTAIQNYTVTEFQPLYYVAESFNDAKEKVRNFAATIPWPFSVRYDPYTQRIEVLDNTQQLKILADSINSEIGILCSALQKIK
Test: Cell Based Phenylalanine Flux Assay;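 note: after compound treatment, cells received sepiapterin plus isotope-labelled Phenylalanine for 4 hours, then labelled Tyrosine in the medium was quantified, 10-point 2-fold dilution series run in duplicate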
Details: A375 cells expressing human R408W PAH; 24 hrs compound incubation; 13C-Tyrosine by LC-MS; average where tested multiple times; read-out: AC50

AC50 [nM] | Compound
1000 to 5000 | O=C(c1nnc(-c2ccn(C(F)F)n2)o1)N1CCc2[nH]cnc2[C@@H]1c1cc2c(C(F)(F)F)cccn2n1 [Example 908, (R)-(5-(1-(difluoromethyl)-1H-pyrazol-3-yl)-1,3,4-oxadiazol-2-yl)(4-(4-(trifluoromethyl)pyrazolo[1,5-a]pyridin-2-yl)-6,7-dihydro-1H-imidazo[4,5-c]pyridin-5(4H)-yl)methanone]
< 500 | O=C(c1nnc(-c2ccn(C(F)F)n2)o1)N1CCc2[nH]cnc2[C@H]1c1cc2c(C(F)(F)F)cccn2n1 [Example 909, (S)-(5-(1-(difluoromethyl)-1H-pyrazol-3-yl)-1,3,4-oxadiazol-2-yl)(4-(4-(trifluoromethyl)pyrazolo[1,5-a]pyridin-2-yl)-6,7-dihydro-1H-imidazo[4,5-c]pyridin-5(4H)-yl)methanone]
500 to 1000 | COc1ccc(-c2nnc(C(=O)N3CCc4[nH]cnc4[C@H]3c3cc4cccc(C)n4n3)o2)nc1 [Example 910, (S)-(5-(5-methoxypyridin-2-yl)-1,3,4-oxadiazol-2-yl)(4-(7-methylpyrazolo[1,5-a]pyridin-2-yl)-6,7-dihydro-1H-imidazo[4,5-c]pyridin-5(4H)-yl)methanone]
> 5000 | COc1ccc(-c2nnc(C(=O)N3CCc4[nH]cnc4[C@@H]3c3cc4cccc(C)n4n3)o2)nc1 [Example 911, (R)-(5-(5-methoxypyridin-2-yl)-1,3,4-oxadiazol-2-yl)(4-(7-methylpyrazolo[1,5-a]pyridin-2-yl)-6,7-dihydro-1H-imidazo[4,5-c]pyridin-5(4H)-yl)methanone]
> 5000 | Cc1cccc2cc([C@H]3c4nc[nH]c4CCN3C(=O)c3nnc(-c4ncccc4F)o3)nn12 [Example 913, (R)-(5-(3-fluoropyridin-2-yl)-1,3,4-oxadiazol-2-yl)(4-(7-methylpyrazolo[1,5-a]pyridin-2-yl)-6,7-dihydro-1H-imidazo[4,5-c]pyridin-5(4H)-yl)methanone]
500 to 1000 | Cc1cccc2cc([C@@H]3c4nc[nH]c4CCN3C(=O)c3nnc(-c4cnn(C(F)F)c4)o3)nn12 [Example 914, (S)-(5-(1-(difluoromethyl)-1H-pyrazol-4-yl)-1,3,4-oxadiazol-2-yl)(4-(7-methylpyrazolo[1,5-a]pyridin-2-yl)-6,7-dihydro-1H-imidazo[4,5-c]pyridin-5(4H)-yl)methanone]
< 500 | Cc1nc(C(=O)N2CCc3[nH]cnc3[C@H]2c2cc3c(C)cccn3n2)n(C)n1 [Example 916, (S)-(1,3-dimethyl-1H-1,2,4-triazol-5-yl)(4-(4-methylpyrazolo[1,5-a]pyridin-2-yl)-6,7-dihydro-1H-imidazo[4,5-c]pyridin-5(4H)-yl)methanone]
< 500 | COc1cccn2nc([C@@H]3c4nc[nH]c4CCN3C(=O)c3cc(C)nn3C)cc12 [Example 918, (S)-(1,3-dimethyl-1H-pyrazol-5-yl)(4-(4-methoxypyrazolo[1,5-a]pyridin-2-yl)-6,7-dihydro-1H-imidazo[4,5-c]pyridin-5(4H)-yl)methanone]
> 5000 | COc1cccn2nc([C@H]3c4nc[nH]c4CCN3C(=O)c3cc(C)nn3C)cc12 [Example 919, (R)-(1,3-dimethyl-1H-pyrazol-5-yl)(4-(4-methoxypyrazolo[1,5-a]pyridin-2-yl)-6,7-dihydro-1H-imidazo[4,5-c]pyridin-5(4H)-yl)methanone]
< 500 | Cn1cnc(-c2nc(C(F)F)c(C(=O)N3CCc4[nH]cnc4[C@H]3c3cc4c(F)cccn4n3)o2)c1 [Example 921, (S)-(4-(difluoromethyl)-2-(1-methyl-1H-imidazol-4-yl)oxazol-5-yl)(4-(4-fluoropyrazolo[1,5-a]pyridin-2-yl)-6,7-dihydro-1H-imidazo[4,5-c]pyridin-5(4H)-yl)methanone]
< 500 | Cc1cccn2nc([C@@H]3c4nc[nH]c4CCN3C(=O)c3nnc(C(C)(C)F)o3)cc12 [Example 922, (S)-(5-(2-fluoropropan-2-yl)-1,3,4-oxadiazol-2-yl)(4-(4-methylpyrazolo[1,5-a]pyridin-2-yl)-6,7-dihydro-1H-imidazo[4,5-c]pyridin-5(4H)-yl)methanone]
> 5000 | Cc1cccn2nc([C@H]3c4nc[nH]c4CCN3C(=O)c3nnc(C(C)(C)F)o3)cc12 [Example 923, (R)-(5-(2-fluoropropan-2-yl)-1,3,4-oxadiazol-2-yl)(4-(4-methylpyrazolo[1,5-a]pyridin-2-yl)-6,7-dihydro-1H-imidazo[4,5-c]pyridin-5(4H)-yl)methanone]
< 500 | Cc1cccn2nc([C@@H]3c4nc[nH]c4CCN3C(=O)c3nnc(C4CC4)o3)cc12 [Example 924, (S)-(5-cyclopropyl-1,3,4-oxadiazol-2-yl)(4-(4-methylpyrazolo[1,5-a]pyridin-2-yl)-6,7-dihydro-1H-imidazo[4,5-c]pyridin-5(4H)-yl)methanone]
< 500 | Cc1cnn(C)c1-c1nnc(C(=O)N2CCc3[nH]cnc3[C@H]2c2cc3c(C)cccn3n2)o1 [Example 926, (S)-(5-(1,4-dimethyl-1H-pyrazol-5-yl)-1,3,4-oxadiazol-2-yl)(4-(4-methylpyrazolo[1,5-a]pyridin-2-yl)-6,7-dihydro-1H-imidazo[4,5-c]pyridin-5(4H)-yl)methanone]
> 5000 | Cc1cnn(C)c1-c1nnc(C(=O)N2CCc3[nH]cnc3[C@@H]2c2cc3c(C)cccn3n2)o1 [Example 927, (R)-(5-(1,4-dimethyl-1H-pyrazol-5-yl)-1,3,4-oxadiazol-2-yl)(4-(4-methylpyrazolo[1,5-a]pyridin-2-yl)-6,7-dihydro-1H-imidazo[4,5-c]pyridin-5(4H)-yl)methanone]
< 500 | Cc1cnn(C)c1-c1nnc(C(=O)N2CCc3[nH]cnc3[C@H]2c2cc3c(F)cccn3n2)o1 [Example 928, (S)-(5-(1,4-dimethyl-1H-pyrazol-5-yl)-1,3,4-oxadiazol-2-yl)(4-(4-fluoropyrazolo[1,5-a]pyridin-2-yl)-6,7-dihydro-1H-imidazo[4,5-c]pyridin-5(4H)-yl)methanone]
> 5000 | Cc1cnn(C)c1-c1nnc(C(=O)N2CCc3[nH]cnc3[C@@H]2c2cc3c(F)cccn3n2)o1 [Example 929, (R)-(5-(1,4-dimethyl-1H-pyrazol-5-yl)-1,3,4-oxadiazol-2-yl)(4-(4-fluoropyrazolo[1,5-a]pyridin-2-yl)-6,7-dihydro-1H-imidazo[4,5-c]pyridin-5(4H)-yl)methanone]
> 5000 | Cc1cccn2nc([C@H]3c4nc[nH]c4CCN3C(=O)c3oc(-c4cn(C)cn4)nc3C(F)F)cc12 [Example 930, (R)-(4-(difluoromethyl)-2-(1-methyl-1H-imidazol-4-yl)oxazol-5-yl)(4-(4-methylpyrazolo[1,5-a]pyridin-2-yl)-6,7-dihydro-1H-imidazo[4,5-c]pyridin-5(4H)-yl)methanone]
< 500 | Cc1cccn2nc([C@@H]3c4nc[nH]c4CCN3C(=O)c3oc(-c4cn(C)cn4)nc3C(F)F)cc12 [Example 931, (S)-(4-(difluoromethyl)-2-(1-methyl-1H-imidazol-4-yl)oxazol-5-yl)(4-(4-methylpyrazolo[1,5-a]pyridin-2-yl)-6,7-dihydro-1H-imidazo[4,5-c]pyridin-5(4H)-yl)methanone]
< 500 | COc1ccc(-c2nnc(C(=O)N3CCc4[nH]cnc4[C@H]3c3cc4c(C(F)(F)F)cccn4n3)o2)nc1 [Example 932, (S)-(5-(5-methoxypyridin-2-yl)-1,3,4-oxadiazol-2-yl)(4-(4-(trifluoromethyl)pyrazolo[1,5-a]pyridin-2-yl)-6,7-dihydro-1H-imidazo[4,5-c]pyridin-5(4H)-yl)methanone]
> 5000 | COc1ccc(-c2nnc(C(=O)N3CCc4[nH]cnc4[C@@H]3c3cc4c(C(F)(F)F)cccn4n3)o2)nc1 [Example 933, (R)-(5-(5-methoxypyridin-2-yl)-1,3,4-oxadiazol-2-yl)(4-(4-(trifluoromethyl)pyrazolo[1,5-a]pyridin-2-yl)-6,7-dihydro-1H-imidazo[4,5-c]pyridin-5(4H)-yl)methanone]
> 5000 | Cn1cnc(-c2nnc(C(=O)N3CCc4[nH]cnc4[C@@H]3c3cc4c(C(F)(F)F)cccn4n3)o2)c1 [Example 935, (R)-(5-(1-methyl-1H-imidazol-4-yl)-1,3,4-oxadiazol-2-yl)(4-(4-(trifluoromethyl)pyrazolo[1,5-a]pyridin-2-yl)-6,7-dihydro-1H-imidazo[4,5-c]pyridin-5(4H)-yl)methanone]
< 500 | Cc1cccc2cc([C@@H]3c4nc[nH]c4CCN3C(=O)c3nnc(-c4ccn(C(F)F)n4)o3)nn12 [Example 936, (S)-(5-(1-(difluoromethyl)-1H-pyrazol-3-yl)-1,3,4-oxadiazol-2-yl)(4-(7-methylpyrazolo[1,5-a]pyridin-2-yl)-6,7-dihydro-1H-imidazo[4,5-c]pyridin-5(4H)-yl)methanone]
> 5000 | Cc1cccc2cc([C@H]3c4nc[nH]c4CCN3C(=O)c3nnc(-c4ccn(C(F)F)n4)o3)nn12 [Example 937, (R)-(5-(1-(difluoromethyl)-1H-pyrazol-3-yl)-1,3,4-oxadiazol-2-yl)(4-(7-methylpyrazolo[1,5-a]pyridin-2-yl)-6,7-dihydro-1H-imidazo[4,5-c]pyridin-5(4H)-yl)methanone]
< 500 | Cc1cccc2cc([C@@H]3c4nc[nH]c4CCN3C(=O)c3nnc(C(C)(C)F)o3)nn12 [Example 938, (S)-(5-(2-fluoropropan-2-yl)-1,3,4-oxadiazol-2-yl)(4-(7-methylpyrazolo[1,5-a]pyridin-2-yl)-6,7-dihydro-1H-imidazo[4,5-c]pyridin-5(4H)-yl)methanone]

From patent US20230365592A1 (Agios Pharmaceuticals, Inc., priority 2022, published 2023)
